Source: patent US9187515B2, “2′,4′-fluoro nucleosides for the treatment of HCV” (Idenix Pharmaceuticals, Inc., priority 2013, dated 2015)

Experiments:
[1] = tested on: HCV genotype 1b replicon in Huh-7-derived cell line (Zluc); assay: HCV replicon assay (luciferase reporter); assay type: cell-based; conditions: Hepatitis C virus; Zluc cells, 72 hours of incubation
Method: Huh-7-derived cell line (Zluc) that harbors an HCV genotype 1b replicon and a luciferase reporter gene was grown in Dulbecco's Modified Eagle Medium (DMEM) supplemented with 10% fetal bovine serum, 2 mM GlutaMAX, 1% MEM nonessential amino acids, 100 IU/mL penicillin, 100 μg/mL streptomycin, and 0.5 mg/mL Geneticin® (G418). For dose response testing the cells were seeded in 96-well plates at 7.5×10^3 cells per well in a volume of 50 μL, and incubated at 37° C./5% CO2. Drug solutions were made up freshly in Huh-7 media as 2× stocks. Ten additional 5-fold dilutions were prepared from these stocks in DMEM without G418. At least three hours after Zluc cells were seeded, drug treatment was initiated by adding 50 μL of drug dilutions to the plates in duplicate. Final concentrations of drug ranged from 100 μM to 0.0000512 μM. Cells were then incubated at 37° C./5% CO2. Alternatively, compounds were tested at two concentrations (1 μM and 10 μM). […] For this, media was removed from the plates via gentle tapping. […] The plates were shaken gently for 3 min at room temperature and luminescence was measured on a Victor^3 V 1420 multilabel counter (Perkin Elmer) with a 1 second read time using a 700 nm cut-off filter. The EC50 values were calculated from dose response curves from the resulting best-fit equations determined by Microsoft Excel and XLfit 4.1 software. […]

[2] = Cytotoxicity evaluation, CellTiter-Blue Cell Viability Assay; assay type: cell-based; conditions: human, Zluc cells
[3] = target: T1, HCV genotype 1b NS5B protein containing the S282T mutation (Hepatitis C virus genotype 1b, UniProt Q9WMX2, S2701T); assay: HCV polymerase enzyme assay, S282T mutant; assay type: biochemical; conditions: nucleoside triphosphate; S282T genotype 1b NS5B; 2 h at 30° C.
T1 construct: HCV genotype 1b NS5B protein were used to generate recombinant HCV polymerases (with a deletion of the 21 carboxy terminal amino acids); made in house
Text: (§1) Test compounds in the form of nucleoside triphosphates were examined for inhibitory activity against purified HCV polymerase in a standard assay. Bacterial expression constructs encoding the approximately 65 kDa HCV genotype 1b NS5B protein were used to generate recombinant HCV polymerases (with a deletion of the 21 carboxy terminal amino acids). Both the wild-type genotype 1b protein and protein containing the S282T mutation were expressed and purified for use in the enzymatic activity assay.
(§2) The enzymatic activity assay measured the inhibitory effect of increasing concentrations of test compound on the incorporation of α-[^33P]-labeled nucleotide into trichloroacetic acid-precipitable material. Recombinant polymerase and synthetic RNA template were combined in reaction buffer containing ribonucleoside triphosphates, α-[^33P]-labeled nucleotide and eight concentrations of test compound in three-fold dilutions. […]
(§3) Reactions were terminated by the addition of ice-cold trichloroacetic acid and sodium pyrophosphate to promote precipitation of newly-synthesized ribonucleic acid. Precipitable material from the reactions was collected by filtration onto 96-well filter plates, washed extensively with water, and quantified by liquid scintillation.
(§4) The inhibitory activity of test compounds was determined by fitting results to dose-response curves using XLfit software.

[4] = target: T2, wild-type HCV genotype 1b NS5B protein (recombinant HCV polymerase) (Hepatitis C virus genotype 1b, UniProt Q9WMX2); assay: HCV polymerase enzyme assay, wild-type; assay type: biochemical
T2 construct: HCV genotype 1b NS5B protein were used to generate recombinant HCV polymerases (with a deletion of the 21 carboxy terminal amino acids); made in house
Text: as §1, §2, §3, §4

Row | SMILES | EC50 [1] | CC50 at 72 h [2] | IC50 [3] | IC50 [4]
1 | O=c1ccn([C@@H]2O[C@](F)(CO)[C@@H](O)[C@H]2F)c(=O)[nH]1 [Compound 101, 1-((2R,3R,4S,5S)-3,5-difluoro-4-hydroxy-5-(hydroxymethyl)tetrahydrofuran-2-yl)pyrimidine-2,4(1H,3H)-dione] | > 10000 nM | > 50000 nM |  | 
2 | Nc1ccn([C@@H]2O[C@](F)(CO)[C@@H](O)[C@H]2F)c(=O)n1 [Compound 105] | 250 to 1000 nM | > 50000 nM |  | 
3 | O=c1ccn([C@@H]2O[C@](F)(COP(=O)(O)OP(=O)(O)OP(=O)(O)O)[C@@H](O)[C@H]2F)c(=O)[nH]1 [Compound 201] |  |  | < 250 nM | 250 to 1000 nM
4 | Nc1ccn([C@@H]2O[C@](F)(COP(=O)(O)OP(=O)(O)OP(=O)(O)O)[C@@H](O)[C@H]2F)c(=O)n1 [Compound 205] |  |  | < 250 nM | < 250 nM
